# Measured values published in patent US6544524B2, “Ethyl acetate extract from guignardia used to treat an individual infected by fungi or bacteria” (Fundacao Oswaldo Cruz - FIOCRUZ, priority 2001, dated 2003).
# Tests used:
# [1] = system: Escherichia coli (ATCC 25922); test: bioautographical method on a layer of agar; assay type: cell-based; conditions: against E. coli; Mueller-Hinton agar, 37° C., 24 hours, MTT
# Procedure: (§1) The antimicrobial activity of this compound was detected employing the bioautographical method on a layer of agar (Rahalison,L.; Hamburger, M., Hostettmann, K.; Monod, M.; Frenk, E. Phytochemical Ananlysis.2.199-203.1991). The following micro-organisms were tested: Escherichia coli (ATCC 25922) and Staphylococcus aureus (ATCC 25923). The medium used was the Mueller-Hinton in agar (Oxoid). The cultures grew during the night in nutrient medium broth number 3 (Fluka). For the bioautographic test the cultures were standardised through successive dilutions in 10^5 cells/ml. The plaques were incubated at 37° C. for a period of 24 hours, sprayed with an aqueous solution of Methylthiazolyltetrazolium chloride (MTT)at 0.25% and then incubated for a further two hours at 37° C. The active fractions were detected under the form of white areas of inhibition on a lilac background.
# [2] = system: Staphylococcus aureus (ATCC 25923); test: bioautographical method on a layer of agar; assay type: cell-based; conditions: against S. aureus; Mueller-Hinton agar, 37° C., 24 hours, MTT
# Procedure: as §1
smiles,measurement,setting,value
"CC(C)C1(C(=O)O)OC(=O)/C(=C/c2ccccc2)O1 (centres unmarked) [compound of the invention, (Z)-5-benzylidene-2-isopropyl-4-oxo-1.3-dioxolane-2-carboxyl acid]",antibacterial activity,[1],150 nM
same,antibacterial activity,[2],75 nM
